Literature values as cited in US20250031692A1, “HIGH LOAD SUSPENSION CONCENTRATE COMPOSITIONS” (ADAMA AGAN LTD., priority 2021, published 2025).

Columns and labels:
[1] = system: Echinochloa spp. and other annual weeds; details: 150-200 g a.i./ha; long residual activity
[2] = biological target: T1, recombinant Fatty Acid Elongation 1 (FAE1) of Arabidopsis (Arabidopsis thaliana, UniProt Q38860)
T1 sequence (Q38860 1-506): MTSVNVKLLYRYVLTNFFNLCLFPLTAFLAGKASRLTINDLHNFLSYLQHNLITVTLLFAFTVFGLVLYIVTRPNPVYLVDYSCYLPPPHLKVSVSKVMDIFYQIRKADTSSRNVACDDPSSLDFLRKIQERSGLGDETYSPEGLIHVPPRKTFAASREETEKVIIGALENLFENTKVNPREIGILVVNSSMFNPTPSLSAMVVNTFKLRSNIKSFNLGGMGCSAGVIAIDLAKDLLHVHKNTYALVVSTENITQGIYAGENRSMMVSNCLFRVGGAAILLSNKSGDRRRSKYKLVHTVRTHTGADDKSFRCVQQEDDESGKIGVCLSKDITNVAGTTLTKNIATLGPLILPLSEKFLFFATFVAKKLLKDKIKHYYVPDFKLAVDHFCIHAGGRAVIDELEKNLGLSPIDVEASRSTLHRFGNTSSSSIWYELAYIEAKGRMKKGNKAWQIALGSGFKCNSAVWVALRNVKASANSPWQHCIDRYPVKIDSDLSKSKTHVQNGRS

[3] = system: VLCFAE activity of the microsomal fraction of etiolated barnyard millet seedlings
[4] = system: grass and broadleaf weeds; details: at lower application rates compared with other commercial herbicides

Structure (SMILES)	herbicidal activity [1]	inhibition of VLCFAE activity [2]	inhibition of VLCFAE activity [3]	herbicidal activity [4]
CCOc1cc(Cl)c(CS(=O)(=O)C2=NOC(C)(C)C2)cc1Cl [Fenoxasulfone, 3-[(2,5-dichloro-4-ethoxyphenyl)methylsulfonyl]-5,5-dimethyl-4H-1,2-oxazole]	excellent herbicidal activity	inhibited by fenoxasulfone in a time-dependent manner	inhibited by fenoxasulfone in a time-independent manner	–
Cn1nc(C(F)(F)F)c(CS(=O)(=O)C2=NOC(C)(C)C2)c1OC(F)F [Pyroxasulfone]	–	–	–	excellent herbicidal activity
